Where two headings read alike, the source gives them in different places.
Experiments:
B. ovis [1] = type: cell-based, Brucella ovis
B. ovis [2] = assay: microbe, parasite or virus in culture; type: cell-based, Brucella ovis; conditions: for IC50: Brucella ovis
B. ovis [3] = assay: microbe, parasite or virus in culture; type: cell-based, Brucella ovis; conditions: for IC50: Brucella ovis; remark: listed apart in the source
B. abortus [4] = assay: microbe, parasite or virus in culture; type: cell-based; conditions: Brucella abortus, THP-1, 48 h, read-out: IC50, intracellular B. abortus in THP-1 cells
B. abortus [5] = type: cell-based, Brucella abortus
[6] = test system: THP-1 macrophage-like cells; type: cell-based, human
B. ovis [7] = type: cell-based, Brucella ovis; remark: listed apart in the source
B. abortus [8] = type: cell-based, Brucella abortus; remark: listed apart in the source
B. abortus [9] = type: cell-based, Brucella abortus; remark: listed apart in the source
THP-1 cells = conditions: human
B. ovis [10] = type: cell-based, Brucella ovis; remark: listed apart in the source
B. abortus [11] = type: cell-based
B. ovis [12] = type: cell-based, Brucella ovis; remark: listed apart in the source
[13] = THP-1, 48 h, read-out: IC50 for inhibiting intracellular growth of B. ovis
[14] = THP-1, read-out: Intracellular IC50
[15] = 48 h, read-out: Axenic B. ovis IC50 (Fig 1B)

In the case of `CCCCCCCCCCCCOS(=O)(=O)[O-].[Na+]` [SDS, sodium dodecyl sulfate], the “Sensitivity of wild-type B. ovis on TSA blood plates” value (shortened to “Sensitivity of wild-type B. ovis”) (B. ovis [1]) is reported as “highly sensitive”.
`COC(=O)C1=C(C)NC(C)=C(C(=O)OCCN(C)Cc2ccccc2)C1c1cccc([N+](=O)[O-])c1` (stereo not drawn) [Nicardipine] was tested, and the “Outcome of validation assays” value (B. ovis [2]) was “inhibitors of intracellular replication that were not toxic to host cells”, the IC50 (B. ovis [2]; [13]) was 2.3 µM and the IC50 (B. ovis [2]; [14]) was 2 µM. For the same compound, the “Effect on terminal optical density of axenic B. ovis” value (B. ovis [3]) was “no effect on the terminal optical density at any concentration tested”, the IC50 (B. ovis [3]; [15]) was > 25 µM and the IC50 (B. ovis [3]; read-out: Axenic IC50) was > 50 µM. The IC50 (B. abortus [4]) was 4.4 µM, the “Sensitivity of WT B. abortus in axenic conditions” value (B. abortus [5]) was “insensitive” and the “Sensitivity of ∆bepE B. abortus in axenic conditions” value (B. abortus [5]) was “insensitive”. For the same compound, the “Increase in intracellular calcium level” value [6] was 20–40%, the “Increase in intracellular manganese level” value [6] was 20–40% and the “Other metal levels in THP-1 cells” value [6] was “Most metal levels remained unchanged”. For the same compound, the “Growth of WT B. ovis in liquid culture” value (B. ovis [7]) was “modest lag”, the “Effect of bepE disruption on B. abortus sensitivity on solid media” value (from here on “Effect of bepE disruption”) (B. abortus [8]) was “did not affect sensitivity” and the “Effect of bepE deletion on B. abortus sensitivity in THP-1 cells” value (B. abortus [9]) was “did not alter sensitivity”. The “Wild-type B. abortus CFUs recovered from treated THP-1 cells compared to untreated controls” value (B. abortus [9]) was “significantly fewer”, the CC50 (THP-1 cells) was 49 µM and the “THP-1 host cell viability” value (THP-1 cells) was “does not affect THP-1 host cell viability”.
In the case of `CCCCN(CCCC)CCC(O)c1cc2c(Cl)cc(Cl)cc2c2cc(C(F)(F)F)ccc12` (stereo not drawn) [Halofantrine], the IC50 (B. ovis [2]; [14]) is reported as > 50 µM, the IC50 (B. ovis [3]; read-out: Axenic IC50) is reported as 11 µM and the CC50 (THP-1 cells) is reported as > 50 µM.
`O=C1CCc2ccc(OCCCCN3CCN(c4cccc(Cl)c4Cl)CC3)cc2N1` [Aripiprazole] was tested, and the CC50 (THP-1 cells) was 12 µM.
With `COc1ccc(CCN(C)CCCC(C#N)(c2ccc(OC)c(OC)c2)C(C)C)cc1OC` (stereo not drawn) [verapamil] the “Hit status in B. ovis intracellular screen” value (B. ovis [10]) was “neither compound emerged as a hit”.
For `CCOc1ccc(NC(C)=O)cc1` [Phenacetin], the IC50 (B. ovis [2]; [14]) was > 50 µM, the IC50 (B. ovis [3]; read-out: Axenic IC50) was > 50 µM and the CC50 (THP-1 cells) was > 50 µM.
With `CC1(C)S[C@@H]2[C@H](NC(=O)Cc3ccccc3)C(=O)N2[C@H]1C(=O)O` [Penicillin G] the “Increase in susceptibility of B. abortus on deletion of bepE (spot-titration on agar)” value (B. abortus [8]) was “approximately five” and the “Differential growth of B. abortus WT and ΔbepE in Biolog phenotype microarray” value (B. abortus [11]) was “markedly inhibiting ΔbepE but not WT growth”.
For `COCCOC(=O)C1=C(C)NC(C)=C(C(=O)OC/C=C/c2ccccc2)C1c1cccc([N+](=O)[O-])c1` (stereo not drawn) [Cilnidipine], the “Outcome of validation assays” value (B. ovis [2]) was “inhibitors of intracellular replication that were not toxic to host cells”, the IC50 (B. ovis [2]; [13]) was 2.5 µM and the IC50 (B. ovis [2]; [14]) was 2 µM. For the same compound, the “Concentrations giving complete growth inhibition of axenic B. ovis” value (B. ovis [3]) was ≥ 10 µM, the IC50 (B. ovis [3]; [15]) was 5.09 µM and the IC50 (B. ovis [3]; 48 h, read-out: Axenic IC50, B. ovis) was ~5 µM. The IC50 (B. ovis [3]; read-out: Axenic IC50) was 5 µM, the IC50 (B. abortus [4]) was 13.5 µM and the “Sensitivity of WT B. abortus in axenic conditions” value (B. abortus [5]) was “insensitive”. For the same compound, the “Sensitivity of ∆bepE B. abortus in axenic conditions” value (B. abortus [5]) was “insensitive”, the “Growth of WT B. ovis in liquid culture” value (B. ovis [7]) was “failed to grow over 72 h” and the “Effect of bepE disruption” value (B. abortus [8]) was “did not affect sensitivity”. For the same compound, the “Effect of bepE deletion on B. abortus sensitivity in THP-1 cells” value (B. abortus [9]) was “increase sensitivity”, the “Axenic inhibition in high-throughput screen” value (B. ovis [12]) was < 35% and the CC50 (THP-1 cells) was > 50 µM. For the same compound, the “THP-1 host cell viability” value (THP-1 cells) was “does not affect THP-1 host cell viability”.
In the case of `CC1(C)S[C@@H]2[C@H](NC(=O)C(C(=O)O)c3ccccc3)C(=O)N2[C@H]1C(=O)O` (stereo partly drawn) [carbenicillin], the “Sensitivity of wild-type B. ovis” value (B. ovis [1]) is reported as “moderately sensitive”.
In the case of `OCCN(CCO)c1nc(N2CCCCC2)c2nc(N(CCO)CCO)nc(N3CCCCC3)c2n1` [Dipyridamole], the IC50 (B. ovis [2]; [14]) is reported as > 50 µM, the IC50 (B. ovis [3]; read-out: Axenic IC50) is reported as > 50 µM and the CC50 (THP-1 cells) is reported as 41 µM.
In the case of `C[C@H](CCC(=O)NCCC[N+](C)(C)CCCS(=O)(=O)[O-])[C@H]1CC[C@H]2[C@@H]3[C@H](O)C[C@@H]4C[C@H](O)CC[C@]4(C)[C@H]3C[C@H](O)[C@]12C` [CHAPS], the “Sensitivity of wild-type B. ovis” value (B. ovis [1]) is reported as “highly sensitive” and the “Effect of bepE disruption” value (B. abortus [8]) is reported as “did not affect sensitivity”.
With `CC(=O)SCC(Cc1ccccc1)C(=O)NCC(=O)OCc1ccccc1` (stereo not drawn) [Racecadotril] the IC50 (B. ovis [2]; [14]) was > 50 µM, the IC50 (B. ovis [3]; read-out: Axenic IC50) was > 50 µM and the CC50 (THP-1 cells) was > 50 µM.
In the case of `N[C@@H]1C[C@H]1c1ccccc1` (racemic) [Tranylcypromine], the IC50 (B. ovis [2]; [14]) is reported as > 50 µM, the IC50 (B. ovis [3]; read-out: Axenic IC50) is reported as > 50 µM and the CC50 (THP-1 cells) is reported as > 50 µM.
`COc1ccc(CN2CCN(C(c3ccc(F)cc3)c3ccc(F)cc3)CC2)c(OC)c1OC` [Lomerizine] was tested, and the “Outcome of validation assays” value (B. ovis [2]) was “inhibitors of intracellular replication that were not toxic to host cells”, the IC50 (B. ovis [2]; [14]) was 9 µM and the IC50 (B. ovis [3]; read-out: Axenic IC50) was > 50 µM. The CC50 (THP-1 cells) was 50 µM.
With `COC(=O)C1=C(C)NC(C)=C(C(=O)OC)C1c1ccccc1[N+](=O)[O-]` [nifedipine] the “Hit status in B. ovis intracellular screen” value (B. ovis [10]) was “neither compound emerged as a hit”.
For `c1ccc(-c2ccc(C(c3ccccc3)n3ccnc3)cc2)cc1` (stereo not drawn) [Bifonazole], the “Outcome of validation assays” value (B. ovis [2]) was “inhibitors of intracellular replication that were not toxic to host cells”, the IC50 (B. ovis [2]; [14]) was 14 µM and the IC50 (B. ovis [3]; read-out: Axenic IC50) was 4 µM. The CC50 (THP-1 cells) was > 50 µM.

From paper PMC12306736 (PLOS Genetics, 2025)
